These are literature values, as cited in US9192591B2, “Method and composition for treating alzheimer-type dementia” (priority 2008, dated 2015).

The structures appear in SMILES notation.

Data set [1] relates to patients with dementias of the Alzheimer type. To be noted: donepezil 5-10 mg per day; rivastigmine 1-4 and 6-12 mg per day; galantamine 8-32 mg per day.
The test system of data set [2] is patients with Alzheimer's disease. To be noted: skin patches replacing immediate release tablets.
Data set [3] has as its system patients with Alzheimer's disease treated with tacrine. To be noted: propantheline 7.5 mg to 15 mg four times a day.

Regarding `CCN(C)C(=O)Oc1cccc([C@H](C)N(C)C)c1` [rivastigmine, (S)—N-Ethyl-N-methyl-3-[1-(dimethylamino)ethyl]-phenyl carbamate], in the data set with patients (compared to less than 1% on placebo), the “patients who discontinued because of vomiting” value is recorded as “Five”. Also, the “patients in whom weight declined” value in the data set with patients (during rivastigmine therapy) is given as 25%. For the same compound, the “patients reporting loss of appetite” value with patients (in vivo) is 17%. In the data set on patients (oral 6-12 mg/day), the “patients who become nauseated” value is “About half” and the “patients who vomit at least once” value is given as “about one-third”. In the data set with patients (rivastigmine-treated patients), the “patients with mild or moderate vomiting” value is 14% and the “patients with severe vomiting” value is on record as 2%. In addition, in data set [1], the “benefits on cognitive and global measures relevant to dementia” value is “small, but statistically significant, benefits”. In addition, the “amount of cognitive improvement and side effects on doubling the dose” value in data set [2] is on record as “significantly increased the amount of cognitive improvement in patients with Alzheimer's disease without increasing side effects”.

Regarding `CC(C)[N+](C)(CCOC(=O)C1c2ccccc2Oc2ccccc21)C(C)C` [propantheline], the “effect on peripheral cholinergic gastrointestinal side effects of tacrine (cramping, nausea, vomiting, diarrhea)” value in data set [3] was “ameliorated”.

With `COc1cc2c(cc1OC)C(=O)C(CC1CCN(Cc3ccccc3)CC1)C2` (racemic) [donepezil, (±)-2,3-dihydro-5,6-dimethoxy-2-[[1-(phenylmethyl)-4-piperidinyl]methyl]-1H-inden-1-one], the “benefits on cognitive and global measures relevant to dementia” value in data set [1] was “small, but statistically significant, benefits”.
